Values quoted from earlier work, collected in US8206772B2, “Structured lipid compositions and methods of formulation thereof” (Kraft Foods Global Brands LLC, priority 2007, dated 2012).

Experiments:
[1] = rats, 5 percent and 10 percent of the diet
[2] = infants fed enriched milk

Row | Structure (SMILES) | nutritional value / toxicity when fed [1] | fat retained per day [2] [%]
1 | CC(=O)OCC(COC(C)=O)OC(C)=O [triacetin] | nutritious | –
2 | CCCC(=O)OCC(COC(=O)CCC)OC(=O)CCC [tributyrin] | nutritious | 90.1 to 90.2
3 | CC(C)CC(=O)OCC(COC(=O)CC(C)C)OC(=O)CC(C)C [triisovalerin] | toxic | –
